Test system: TPO-dependent human megakaryoblastic leukemia cell line (UT-7/TPO)
Assay: Cell culture evaluation: UT-7/TPO cell number count using WST-8 after 6 days of culture on the substrate
Format: cell-based
Experimental: The ligand-bonded fiber 1 of Example 1 and the fiber of Comparative Example 1 were subjected to cell culture evaluation. As a control for the evaluation, a system in which PSt substrate was configured (positive control: thrombopoietin (TPO) (10 ng/mL) was added to medium, negative control: medium alone) was used. In the following, the CO2 concentration (%) of the CO2 incubator is shown by % by volume of CO2 in the atmosphere.
As the cell, TPO-dependent human megakaryoblastic leukemia cell line (UT-7/TPO; Komatsu et. al., Blood, 1996, 87, pp. 4552-4560) was used. For cell culture, IMDM (Iscove's Modified Dulbecco's Medium) medium (manufactured by Sigma-Aldrich) containing 10% (v/v) FBS and 10 ng/mL TPO (Thrombopoietin, manufactured by PeproTech) was used. The cells were cultured for not less than 2 days in a CO2 incubator at 37° C. while keeping 5% carbon dioxide concentration. The obtained culture medium was centrifuged (manufactured by TOMY SEIKO Co., Ltd., LC-200, 1500 rpm/3 min, room temperature), the supernatant was removed, the above-mentioned IMDM medium free of TPO was added to prepare a cell suspension. The “FBS” here means fetal bovine serum (manufactured by Biological Industries).
The ligand-bonded fiber of Example 1, the fiber of Comparative Example 1, and PSt substrate (for positive control and negative control) were configured in 6 well flat-bottom microplates (manufactured by AS ONE Corporation). […]
After 6 days of cell culture, the cell culture medium was recovered from respective wells in which the ligand-bonded fibers 1-3 of Examples 1-3, the fiber of Comparative Example 1, the substrate of Comparative Example 2, and PSt substrates for positive control and negative control were configured. […] After standing in a CO2 incubator at 37° C. for 120 min, the absorbance at 450 nm was measured by an absorption spectrometer (manufactured by Molecular Devices, SpectraMax). […]
After 6 days of culture, the cell number was counted in the same manner as above by using WST-8. […]

thrombopoietin [positive control]
100%: cell number (%) cell culture, first time (Table 3, UT-7/TPO, 6 days culture, positive control (TPO 10 ng/mL) as 100%) | cell number (%) cell culture, third time (Table 3, same substrate reused a third time, fresh UT-7/TPO cells, 6 days, positive control as 100%) | cell number (%) cell culture, second time (Table 3, same substrate reused after PBS wash, fresh UT-7/TPO cells, 6 days, positive control as 100%)

— patent publication US10724028B2, “Ligand-binding fiber and cell culture substrate using said fiber” (NISSAN CHEMICAL INDUSTRIES, LTD., priority 2014, dated 2020)
